According to patent EP0726263A2, “Herbicidal (1,3,4)oxadiazoles and thiadiazoles” (American Cyanamid Company, priority 1995, dated 1996):

Legend:
Assay type in all cases: in vivo
[1] = system: Matricaria inodora; assay: Herbicidal activity, preemergence test; conditions: pre; sprayed onto soil, 800 g of active material per hectare; evaluated 3 weeks after treatment
Procedure: (§1) To evaluate their herbicidal activity, compounds according to the invention are tested using a representative range of plants: TRZAW Triticum aestivum HORVW Hordeum vulgare ZEAMX Zea mays GOSHI Gossypium hirsutum HELAN Helianthus annuus GLYMA Glycine max ALOMY Alopecurus myosuroides SETVI Setaria viridis ECHCG Echinochloa crus-galli GALAP Galium aparine STEME Stellaria media VERPE Veronica persica VIOAR Viola arvensis IPOHE Ipomoea hederacea LAMPU Lamium purpureum PAPRH Papaver rhoeas MATIN Matricaria inodora AMARE Amaranthus retroflexus ABUTH Abutilon theophrasti AMBEL Ambrosia artemisifolia CHEAL Chenopodium album
(§2) The tests fall into two categories, preemergence and postemergence. The preemergence tests involve spraying a liquid formulation of the compound onto the soil in which the seeds have recently been sown. The postemergence tests involve spraying a liquid formulation of the compound onto seedling plants.
(§3) The soil used in the tests is a prepared horticultural loam.
(§4) The formulations used in the tests are prepared from solutions of the test compounds in acetone containing 0.4% by weight of an alkylphenol/ethylene oxide condensate available under the trade mark TRITON X-155. These acetone solutions are diluted with water and the resulting formulations applied at dosage levels corresponding to 800 g of active material per hectare in a volume equivalent to 900 litres per hectare.
(§5) In the preemergence tests untreated sown soil and in the postemergence tests untreated soil bearing seedling plants are used as controls.
(§6) Results of herbicide evaluation are expressed on a rating scale (0-9). The scale is based upon a visual observation of plant stand, vigor, malformation, size, chlorosis, and general plant appearance as compared to a control. Preemergence and postemergence treatments are evaluated at 3 and 2 weeks after treatment, respectively.

[2] = system: Hordeum vulgare; assay: Herbicidal activity, preemergence test; conditions: pre; sprayed onto soil, 800 g of active material per hectare; evaluated 3 weeks after treatment
Procedure: as §1, §2, §3, §4, §5, §6

[3] = system: Gossypium hirsutum; assay: Herbicidal activity, preemergence test; conditions: pre; sprayed onto soil, 800 g of active material per hectare; evaluated 3 weeks after treatment
Procedure: as §1, §2, §3, §4, §5, §6

[4] = system: Veronica persica; assay: Herbicidal activity, preemergence test; conditions: pre; sprayed onto soil, 800 g of active material per hectare; evaluated 3 weeks after treatment
Procedure: as §1, §2, §3, §4, §5, §6

[5] = system: Chenopodium album; assay: Herbicidal activity, preemergence test; conditions: pre; sprayed onto soil, 800 g of active material per hectare; evaluated 3 weeks after treatment
Procedure: as §1, §2, §3, §4, §5, §6

[6] = system: Alopecurus myosuroides; assay: Herbicidal activity, preemergence test; conditions: pre; sprayed onto soil, 800 g of active material per hectare; evaluated 3 weeks after treatment
Procedure: as §1, §2, §3, §4, §5, §6

[7] = system: Triticum aestivum; assay: Herbicidal activity, preemergence test; conditions: pre; sprayed onto soil, 800 g of active material per hectare; evaluated 3 weeks after treatment
Procedure: as §1, §2, §3, §4, §5, §6

[8] = system: Ambrosia artemisifolia; assay: Herbicidal activity, preemergence test; conditions: pre; sprayed onto soil, 800 g of active material per hectare; evaluated 3 weeks after treatment
Procedure: as §1, §2, §3, §4, §5, §6

[9] = system: Amaranthus retroflexus; assay: Herbicidal activity, preemergence test; conditions: pre; sprayed onto soil, 800 g of active material per hectare; evaluated 3 weeks after treatment
Procedure: as §1, §2, §3, §4, §5, §6

[10] = system: Abutilon theophrasti; assay: Herbicidal activity, preemergence test; conditions: pre; sprayed onto soil, 800 g of active material per hectare; evaluated 3 weeks after treatment
Procedure: as §1, §2, §3, §4, §5, §6

[11] = system: Papaver rhoeas; assay: Herbicidal activity, preemergence test; conditions: pre; sprayed onto soil, 800 g of active material per hectare; evaluated 3 weeks after treatment
Procedure: as §1, §2, §3, §4, §5, §6

[12] = system: Glycine max; assay: Herbicidal activity, preemergence test; conditions: pre; sprayed onto soil, 800 g of active material per hectare; evaluated 3 weeks after treatment
Procedure: as §1, §2, §3, §4, §5, §6

[13] = system: Stellaria media; assay: Herbicidal activity, preemergence test; conditions: pre; sprayed onto soil, 800 g of active material per hectare; evaluated 3 weeks after treatment
Procedure: as §1, §2, §3, §4, §5, §6

[14] = system: Ipomoea hederacea; assay: Herbicidal activity, preemergence test; conditions: pre; sprayed onto soil, 800 g of active material per hectare; evaluated 3 weeks after treatment
Procedure: as §1, §2, §3, §4, §5, §6

[15] = system: Lamium purpureum; assay: Herbicidal activity, preemergence test; conditions: pre; sprayed onto soil, 800 g of active material per hectare; evaluated 3 weeks after treatment
Procedure: as §1, §2, §3, §4, §5, §6

[16] = system: Zea mays; assay: Herbicidal activity, preemergence test; conditions: pre; sprayed onto soil, 800 g of active material per hectare; evaluated 3 weeks after treatment
Procedure: as §1, §2, §3, §4, §5, §6

[17] = system: Galium aparine; assay: Herbicidal activity, preemergence test; conditions: pre; sprayed onto soil, 800 g of active material per hectare; evaluated 3 weeks after treatment
Procedure: as §1, §2, §3, §4, §5, §6

[18] = system: Setaria viridis; assay: Herbicidal activity, preemergence test; conditions: pre; sprayed onto soil, 800 g of active material per hectare; evaluated 3 weeks after treatment
Procedure: as §1, §2, §3, §4, §5, §6

[19] = system: Matricaria inodora; assay: Herbicidal activity, postemergence test; conditions: post; sprayed onto seedling plants, 800 g of active material per hectare; evaluated 2 weeks after treatment
Procedure: as §1, §2, §3, §4, §5, §6

[20] = system: Hordeum vulgare; assay: Herbicidal activity, postemergence test; conditions: post; sprayed onto seedling plants, 800 g of active material per hectare; evaluated 2 weeks after treatment
Procedure: as §1, §2, §3, §4, §5, §6

[21] = system: Gossypium hirsutum; assay: Herbicidal activity, postemergence test; conditions: post; sprayed onto seedling plants, 800 g of active material per hectare; evaluated 2 weeks after treatment
Procedure: as §1, §2, §3, §4, §5, §6

[22] = system: Veronica persica; assay: Herbicidal activity, postemergence test; conditions: post; sprayed onto seedling plants, 800 g of active material per hectare; evaluated 2 weeks after treatment
Procedure: as §1, §2, §3, §4, §5, §6

[23] = system: Chenopodium album; assay: Herbicidal activity, postemergence test; conditions: post; sprayed onto seedling plants, 800 g of active material per hectare; evaluated 2 weeks after treatment
Procedure: as §1, §2, §3, §4, §5, §6

[24] = system: Alopecurus myosuroides; assay: Herbicidal activity, postemergence test; conditions: post; sprayed onto seedling plants, 800 g of active material per hectare; evaluated 2 weeks after treatment
Procedure: as §1, §2, §3, §4, §5, §6

[25] = system: Triticum aestivum; assay: Herbicidal activity, postemergence test; conditions: post; sprayed onto seedling plants, 800 g of active material per hectare; evaluated 2 weeks after treatment
Procedure: as §1, §2, §3, §4, §5, §6

[26] = system: Ambrosia artemisifolia; assay: Herbicidal activity, postemergence test; conditions: post; sprayed onto seedling plants, 800 g of active material per hectare; evaluated 2 weeks after treatment
Procedure: as §1, §2, §3, §4, §5, §6

[27] = system: Amaranthus retroflexus; assay: Herbicidal activity, postemergence test; conditions: post; sprayed onto seedling plants, 800 g of active material per hectare; evaluated 2 weeks after treatment
Procedure: as §1, §2, §3, §4, §5, §6

[28] = system: Abutilon theophrasti; assay: Herbicidal activity, postemergence test; conditions: post; sprayed onto seedling plants, 800 g of active material per hectare; evaluated 2 weeks after treatment
Procedure: as §1, §2, §3, §4, §5, §6

[29] = system: Papaver rhoeas; assay: Herbicidal activity, postemergence test; conditions: post; sprayed onto seedling plants, 800 g of active material per hectare; evaluated 2 weeks after treatment
Procedure: as §1, §2, §3, §4, §5, §6

[30] = system: Glycine max; assay: Herbicidal activity, postemergence test; conditions: post; sprayed onto seedling plants, 800 g of active material per hectare; evaluated 2 weeks after treatment
Procedure: as §1, §2, §3, §4, §5, §6

[31] = system: Stellaria media; assay: Herbicidal activity, postemergence test; conditions: post; sprayed onto seedling plants, 800 g of active material per hectare; evaluated 2 weeks after treatment
Procedure: as §1, §2, §3, §4, §5, §6

[32] = system: Ipomoea hederacea; assay: Herbicidal activity, postemergence test; conditions: post; sprayed onto seedling plants, 800 g of active material per hectare; evaluated 2 weeks after treatment
Procedure: as §1, §2, §3, §4, §5, §6

[33] = system: Lamium purpureum; assay: Herbicidal activity, postemergence test; conditions: post; sprayed onto seedling plants, 800 g of active material per hectare; evaluated 2 weeks after treatment
Procedure: as §1, §2, §3, §4, §5, §6

[34] = system: Zea mays; assay: Herbicidal activity, postemergence test; conditions: post; sprayed onto seedling plants, 800 g of active material per hectare; evaluated 2 weeks after treatment
Procedure: as §1, §2, §3, §4, §5, §6

[35] = system: Galium aparine; assay: Herbicidal activity, postemergence test; conditions: post; sprayed onto seedling plants, 800 g of active material per hectare; evaluated 2 weeks after treatment
Procedure: as §1, §2, §3, §4, §5, §6

[36] = system: Setaria viridis; assay: Herbicidal activity, postemergence test; conditions: post; sprayed onto seedling plants, 800 g of active material per hectare; evaluated 2 weeks after treatment
Procedure: as §1, §2, §3, §4, §5, §6

O=C(NCc1ccccc1)c1nnc(-c2ccc(F)cc2)o1 [Example 9]
MATIN control rating (0-9) [1]: 0 (no effect)
HORVW control rating (0-9) [2]: 0 (no effect)
GOSHI control rating (0-9) [3]: 0 (no effect)
VERPE control rating (0-9) [4]: 7 (good herbicidal effect)
CHEAL control rating (0-9) [5]: 0 (no effect)
ALOMY control rating (0-9) [6]: 0 (no effect)
TRZAW control rating (0-9) [7]: 0 (no effect)
AMBEL control rating (0-9) [8]: 0 (no effect)
AMARE control rating (0-9) [9]: 0 (no effect)
ABUTH control rating (0-9) [10]: 0 (no effect)
PAPRH control rating (0-9) [11]: 6 (herbicidal effect)
GLXMA control rating (0-9) [12]: 1 (trace effect)
STEME control rating (0-9) [13]: 0 (no effect)
IPOHE control rating (0-9) [14]: 0 (no effect)
LAMPU control rating (0-9) [15]: 0 (no effect)
ZEAMX control rating (0-9) [16]: 0 (no effect)
GALAP control rating (0-9) [17]: 0 (no effect)
SETVI control rating (0-9) [18]: 3 (moderate effect)
MATIN control rating (0-9) [19]: 0 (no effect)
HORVW control rating (0-9) [20]: 0 (no effect)
GOSHI control rating (0-9) [21]: 0 (no effect)
VERPE control rating (0-9) [22]: 0 (no effect)
CHEAL control rating (0-9) [23]: 0 (no effect)
ALOMY control rating (0-9) [24]: 0 (no effect)
TRZAW control rating (0-9) [25]: 0 (no effect)
AMBEL control rating (0-9) [26]: 0 (no effect)
AMARE control rating (0-9) [27]: 0 (no effect)
ABUTH control rating (0-9) [28]: 3 (moderate effect)
PAPRH control rating (0-9) [29]: 0 (no effect)
GLXMA control rating (0-9) [30]: 0 (no effect)
STEME control rating (0-9) [31]: 0 (no effect)
IPOHE control rating (0-9) [32]: 0 (no effect)
LAMPU control rating (0-9) [33]: 0 (no effect)
ZEAMX control rating (0-9) [34]: 0 (no effect)
GALAP control rating (0-9) [35]: 0 (no effect)
SETVI control rating (0-9) [36]: 0 (no effect)
